Experimental data reported in US6281356A, “Substituted pyrroles” (Hoffmann-La Roche Inc., priority 2000, dated 2001).
pIC50: −log10 of the molar value.

test system: epithelial breast carcinoma cell line (MDAMB-435); experiment: Antiproliferative activity (growth inhibition, MTT), epithelial breast carcinoma cell line MDAMB-435; type: cell-based; conditions: Homo sapiens, MDA-MB-435, 120 h, 5 days post drug addition, 0.1% DMSO, read-out: IC50 (growth inhibition of MDAMB-435 cells)
Method: The epithelial breast carcinoma cell line (MDAMB-435) was purchased from ATCC (American Type Cell Culture Collection) and was grown in culture medium as recommended by ATCC. For analysis of the effect of various compounds of formula I on the growth of these cells, the cells were plated at a concentration of 1500 cells/well in a 96 well tissue culture plate ("test plate"). The day after the cells were plated, the compounds to be analyzed were dissolved in 100% DMSO (dimethyl sulfoxide) to yield at 10 mM stock solution. Each compound was diluted in H2 O to 1 mM and was added to triplicate wells in the first row of a 96 well master plate containing medium to yield a final concentration of 40 μM. The compounds were then serially diluted in medium in the "master plate". The diluted compound(s) were then transferred to test plates containing cells. A row of vehicle "control cells" received DMSO. The final concentration of DMSO in each well was 0.1%. 5 days post drug addition, the plate was analyzed as described below.
MTT (3-(4-5 methyl thiazole-2-yl)-2,5-diphenyl tetrazolium bromide; thiazolyl blue) was added to each well to yield a final concentration of 1 mg/ml. The plate was then incubated at 37° C. for 21/2-3 hours. The MTT-containing medium was then removed and 50 μl of 100% ethanol was added to each well to dissolve the formazan. The absorbences were then read using an automated plate reader (Bio-tek microplate reader). IC50 s were calculated using the Reed and Munsch equation, see Am. J. Hygiene Vol. 27 pgs. 493-497,1938.

| Structure (SMILES) | pIC50 |
| --- | --- |
| COCn1cc(C2=C(c3cn(C)c4cc(F)ccc34)C(=O)NC2=O)c2ccc(N3CCOCC3)cc21 [Example 12m, 3-(6-Fluoro-1-methyl-1H-indol-3-yl)-4-(1-methoxymethyl-6-morpholin-4-yl-1H-indol-3-yl)pyrrole-2,5-dione] | 6.77 |
| Cn1cncc1-c1ccc2c(C3=C(c4cn(C)c5ccccc45)C(=O)NC3=O)cn(C)c2c1 [Example 2a, 3-(1-Methyl-1H-indol-3-yl)-4-[1-methyl-6-(3-methyl-3H-imidazol-4-yl)-1H-indol-3-yl]pyrrole-2,5-dione] | 7.30 |
| Cn1cc(C2=C(c3c[nH]c4cc(N5CCCC5)ccc34)C(=O)NC2=O)c2ccc([N+](=O)[O-])cc21 [Example 12h, 3-(1-Methyl-6-nitro-1H-indol-3-yl)-4-(6-pyrrolidin-1-yl-1H-indol-3-yl)pyrrole-2,5-dione] | 8.70 |
| Cn1cc(C2=C(c3cn(C)c4cc([N+](=O)[O-])ccc34)C(=O)NC2=O)c2ccc(-c3ccsc3)cc21 [Example 6, 3-(1-methyl-6-nitro-1H-indol-3-yl)-4-(1-methyl-6-thiophen-3-yl-1H-indol-3-yl)pyrrole-2,5-dione] | 7.40 |
| Cn1cc(C2=C(c3cn(C)c4cc(-n5ccnc5)ccc34)C(=O)NC2=O)c2ccccc21 [Example 7, 3-(6-imidazol-1-yl-1-methyl-1H-indol-3-yl)-4-(1-methyl-1H-indol-3-yl)-pyrrole-2,5-dione] | 7.22 |
